System: Venturia inaequalis
Experiment: Venturia test (apple)/protective
Type: in vivo
Conditions: 240 h, apple plants, protective spray, evaluation 10 days after inoculation, read-out: Efficacy in %
Method: Venturia Test (Apple)/Protective
(§1) • Solvents: 24.5 parts by weight of acetone • 24.5 parts by weight of dimethylacetamide • Emulsifier: 1 part by weight of alkylaryl polyglycol ether
(§2) To produce a suitable preparation of active compound, 1 part by weight of active compound is mixed with the stated amounts of solvents and emulsifier, and the concentrate is diluted with water to the desired concentration.
To test for protective activity, young plants are sprayed with the preparation of active compound at the stated application rates. After the spray coating has dried on, the plants are inoculated with an aqueous conidia suspension of the apple scab pathogen Venturia inaequalis and then remain in an incubation cabinet about 20° C. and 100% relative atmospheric humidity for 1 day.
The plants are then placed in a greenhouse at about 21° C. and a relative atmospheric humidity of about 90%.
(§3) Evaluation is carried out 10 days after the inoculation. 0% means an efficacy which corresponds to that of the control, whereas an efficacy of 100% means that no infection is observed.

SMILES	pest or weed control at 100 g/ha
Cc1nc(C(F)(F)F)c(C(=O)Nc2ccc(F)cc2C(C)CC(C)C)s1 (stereo not shown) [drawing 102]	100%
Cc1sccc1C(=O)Nc1ccc(F)cc1C(C)CC(C)C (stereo not shown) [drawing 101]	94%
Cc1sccc1C(=O)Nc1ccccc1C(C)CC(C)C (stereo not shown) [drawing 95]	100%
CC(C)CC(C)c1ccccc1NC(=O)c1cn(C)nc1C(C)F (stereo not shown) [drawing 98]	100%
Cc1ccsc1C(=O)Nc1ccc(F)cc1C(C)CC(C)C (stereo not shown) [drawing 103]	100%
CC(C)CC(C)c1cc(F)ccc1NC(=O)c1cn(C)nc1C(F)(F)F (stereo not shown) [drawing 99]	100%
Cc1nc(C(F)F)c(C(=O)Nc2ccc(F)cc2C(C)CC(C)C)s1 (stereo not shown) [drawing 104]	100%
CC(C)CC(C)c1ccccc1NC(=O)c1cn(C)nc1Cl (stereo not shown) [drawing 97]	100%
CC(C)CC(C)c1ccccc1NC(=O)c1ccoc1C(F)(F)F (stereo not shown) [drawing 96]	96%
CC(C)CC(C)c1cc(F)ccc1NC(=O)c1cn(C)nc1C(F)F (stereo not shown) [drawing 100]	100%
CC(C)CC(C)c1ccccc1NC(=O)c1scnc1Cl (stereo not shown) [drawing 94]	99%
CC1=C(C(=O)Nc2ccc(F)cc2C(C)CC(C)C)SCCO1 (stereo not shown) [drawing 105]	100%

System: Puccinia recondita
Experiment: Puccinia test (wheat)/protective
Type: in vivo
Conditions: 240 h, wheat plants, protective spray, evaluation 10 days after inoculation, read-out: Efficacy in %
Method: Puccinia Test (Wheat)/Protective
Solvent: 50 parts by weight of N,N-dimethylacetamide
Emulsifier: 1 part by weight of alkylaryl polyglycol ether
(§4) To produce a suitable preparation of active compound, 1 part by weight of active compound is mixed with the stated amounts of solvent and emulsifier, and the concentrate is diluted with water to the desired concentration.
To test for protective activity, young plants are sprayed with the preparation of active compound at the stated application rate. After the spray coating has dried on, the plants are sprayed with a conidia suspension of Puccinia recondita. The plants remain in an incubation cabinet at 20° C. and 100% relative atmospheric humidity for 48 hours.
The plants are then placed in a greenhouse at a temperature of about 20° C. and a relative atmospheric humidity of 80% to promote the development of rust pustules.
as §3

SMILES	pest or weed control at 500 g/ha
CC(C)CC(C)c1cc(F)ccc1NC(=O)c1cn(C)nc1C(F)(F)F (stereo not shown) [drawing 121]	100%
CC(C)CC(C)c1cc(F)ccc1NC(=O)c1cn(C)nc1C(F)F (stereo not shown) [drawing 124]	100%
CC(C)CC(C)c1cc(F)ccc1NC(=O)c1cccnc1Cl (stereo not shown)	100%
CC(C)CC(C)c1ccccc1NC(=O)c1ccoc1C(F)(F)F (stereo not shown) [drawing 119]	100%
CC1=C(C(=O)Nc2ccc(F)cc2C(C)CC(C)C)SCCO1 (stereo not shown) [drawing 130]	100%
Cc1occc1C(=O)Nc1ccc(F)cc1C(C)CC(C)C (stereo not shown)	100%
CC(C)CC(C)c1ccccc1NC(=O)c1cn(C)nc1Cl (stereo not shown) [drawing 120]	100%
Cc1nc(Cl)sc1C(=O)Nc1ccccc1C(C)CC(C)C (stereo not shown)	100%
Cc1sccc1C(=O)Nc1ccccc1C(C)CC(C)C (stereo not shown) [drawing 118]	100%
Cc1nc(C(F)F)c(C(=O)Nc2ccc(F)cc2C(C)CC(C)C)s1 (stereo not shown) [drawing 129]	100%
CC(C)CC(C)c1cc(F)ccc1NC(=O)c1cn(C)nc1Cl (stereo not shown)	100%
Cc1nc(C(F)(F)F)c(C(=O)Nc2ccc(F)cc2C(C)CC(C)C)s1 (stereo not shown) [drawing 127]	100%
Cc1ccsc1C(=O)Nc1ccc(F)cc1C(C)CC(C)C (stereo not shown) [drawing 128]	100%
Cc1sccc1C(=O)Nc1ccc(F)cc1C(C)CC(C)C (stereo not shown) [drawing 125]	100%

System: Botrytis cinerea
Experiment: Botrytis test (bean)/protective
Type: in vivo
Conditions: 48 h, bean plants, protective spray, 100 g/ha, evaluation two days after inoculation, read-out: Efficacy in %
Method: Botrytis Test (Bean)/Protective
as §1, §4
To test for protective activity, young plants are sprayed with the preparation of active compound at the stated application rate. After the spray coating has dried on, 2 small pieces of agar colonized by Botrytis cinerea are placed under each leaf. The inoculated plants are placed in a dark chamber at about 20° C. and 100% relative atmospheric humidity.
Two days after the inoculation, the size of the infected areas on the leaves is evaluated. 0% means an efficacy which corresponds to that of the control, whereas an efficacy of 100% means that no infection is observed.

SMILES	pest or weed control at 100 g/ha
Cc1sccc1C(=O)Nc1ccccc1C(C)CC(C)C (stereo not shown) [drawing 107]	97%
CC(C)CC(C)c1ccccc1NC(=O)c1scnc1Cl (stereo not shown) [drawing 106]	99%
CC(C)CC(C)c1ccccc1NC(=O)c1cn(C)nc1Cl (stereo not shown) [drawing 108]	100%

Same assay, conditions: 48 h, bean plants, protective spray, 500 g/ha, evaluation two days after inoculation, read-out: Efficacy in %

SMILES	pest or weed control at 500 g/ha
Cc1sccc1C(=O)Nc1ccc(F)cc1C(C)CC(C)C (stereo not shown) [drawing 112]	100%
CC(C)CC(C)c1cc(F)ccc1NC(=O)c1cn(C)nc1C(F)(F)F (stereo not shown) [drawing 110]	99%
Cc1ccsc1C(=O)Nc1ccc(F)cc1C(C)CC(C)C (stereo not shown) [drawing 114]	98%
CC1=C(C(=O)Nc2ccc(F)cc2C(C)CC(C)C)SCCO1 (stereo not shown) [drawing 116]	100%
Cc1nc(C(F)F)c(C(=O)Nc2ccc(F)cc2C(C)CC(C)C)s1 (stereo not shown) [drawing 115]	100%
Cc1nc(C(F)(F)F)c(C(=O)Nc2ccc(F)cc2C(C)CC(C)C)s1 (stereo not shown) [drawing 113]	100%
CC(C)CC(C)c1ccccc1NC(=O)c1cn(C)nc1C(C)F (stereo not shown) [drawing 109]	99%
CC(C)CC(C)c1cc(F)ccc1NC(=O)c1cn(C)nc1C(F)F (stereo not shown) [drawing 111]	100%

System: Podosphaera leucotricha
Experiment: Podosphaera test (apple)/protective
Type: in vivo
Conditions: 240 h, apple plants, protective spray, evaluation 10 days after inoculation, read-out: Efficacy in %
Method: Podosphaera Test (Apple)/Protective
• Solvents: 24.5 parts by weight of acetone • 24.5 parts by weight of dimethylacetamide • Emulsifier: 1 part by weight of alklylaryl polyglycol ether
as §2
To test for protective activity, young plants are sprayed with the preparation of active compound at the stated application rate. After the spray coating has dried on, the plants are inoculated with an aqueous spore suspension of the apple mildew pathogen Podosphaera leucotricha. The plants are then placed in a greenhouse at about 23° C. and a relative atmospheric humidity of about 70%.
as §3

SMILES	pest or weed control at 100 g/ha
CC(C)CC(C)c1ccccc1NC(=O)c1cn(C)nc1C(C)F (stereo not shown) [drawing 86]	100%
CC(C)CC(C)c1cc(F)ccc1NC(=O)c1cn(C)nc1C(F)F (stereo not shown) [drawing 88]	100%
CC(C)CC(C)c1cc(F)ccc1NC(=O)c1cn(C)nc1C(F)(F)F (stereo not shown) [drawing 87]	88%
Cc1nc(C(F)F)c(C(=O)Nc2ccc(F)cc2C(C)CC(C)C)s1 (stereo not shown) [drawing 92]	100%
CC(C)CC(C)c1ccccc1NC(=O)c1cn(C)nc1Cl (stereo not shown) [drawing 85]	100%
CC(C)CC(C)c1ccccc1NC(=O)c1ccoc1C(F)(F)F (stereo not shown) [drawing 84]	98%
CC(C)CC(C)c1ccccc1NC(=O)c1scnc1Cl (stereo not shown) [drawing 82]	100%
Cc1ccsc1C(=O)Nc1ccc(F)cc1C(C)CC(C)C (stereo not shown) [drawing 91]	99%
Cc1sccc1C(=O)Nc1ccc(F)cc1C(C)CC(C)C (stereo not shown) [drawing 89]	100%
Cc1nc(C(F)(F)F)c(C(=O)Nc2ccc(F)cc2C(C)CC(C)C)s1 (stereo not shown) [drawing 90]	100%
CC1=C(C(=O)Nc2ccc(F)cc2C(C)CC(C)C)SCCO1 (stereo not shown) [drawing 93]	100%
Cc1sccc1C(=O)Nc1ccccc1C(C)CC(C)C (stereo not shown) [drawing 83]	100%

System: not listed separately
Experiment: logP determination by HPLC on a reversed-phase column (EEC Directive 79/831 Annex V.A8)
Type: physicochemical
Conditions: reversed-phase C18 HPLC column, pH 2.3, C 18 reversed phase, 43° C.
Method: The logP values given in the Preparation Examples and tables above are determined in accordance with EEC Directive 79/831 Annex V.A8 by HPLC (High Performance Liquid Chromatography) on a reversed-phase column (C 18). Temperature: 43° C.
The determination is carried out in the acidic range at pH 2.3 using the mobile phases 0.1% aqueous phosphoric acid and acetonitrile; linear gradient from 10% acetonitrile to 90% acetonitrile.
Calibration is carried out using unbranched alkan-2-ones (with 3 to 16 carbon atoms) with known logP values (determination of the logP values by the retention times using linear interpolation between two successive alkanones).

SMILES	chromatographic logP
COC(=O)c1cn(C)nc1C=O [Example X-1]	0.46
CCOC(=O)c1sc(C)nc1OC(F)F [II-6]	2.54
COc1nc(C)sc1C(=O)Nc1ccccc1C(C)CC(C)C (stereo not shown) [Example 3, N-[2-(1,3-dimethylbutyl)phenyl]-4-methoxy-2-methyl-1,3-thiazole-5-carboxamide]	4.45
CC(C)CC(C)c1ccccc1NC(=O)c1cn(C)nc1C=O (stereo not shown) [Example 2, N-[2-(1,3-dimethylbutyl)phenyl]-3-formyl-1-methyl-1H-pyrazole-4-carboxamide]	3.64
CC(C)CC(C)c1ccccc1NC(=O)c1cn(C)nc1C(Cl)Cl (stereo not shown) [Example 1, 3-(dichloromethyl)-1-methyl-N-[2-(1,3-dimethylbutyl)phenyl]-1H-pyrazole-4-carboxamide]	3.74
CCOC(=O)c1sc(C)nc1OC [II-1]	1.9
Cc1nc(OC(F)F)c(C(=O)O)s1 [II-7]	1.29
COC(=O)c1cn(C)nc1C(Cl)Cl [XII-1]	1.8
COc1nc(C)sc1C(=O)O [II-2]	0.77
Cn1cc(C(=O)O)c(C=O)n1 [XI-1]	-0.19
Cc1nc(O)c(C(=O)Nc2ccccc2C(C)CC(C)C)s1 (stereo not shown) [Example 4, N-[2-(1,3-dimethylbutyl)phenyl]-4-hydroxy-2-methyl-1,3-thiazole-5-carboxamide]	2.68
CCOC(=O)c1cn(C)nc1OC [II-4]	1.14

— US20070196406A1, “1,3-Dimethylbutyl carboxanilides for controlling undesirable micro-organisms” (priority 2003, published 2007)
